Reference: US4533553A, “Polycyclic ether antibiotic” (priority 1983, dated 1985)

Key:
rumen fluid = assay: in vitro rumen technique, propionic acid production; parameters: species or system cow; conditions: for increase in propionic acid: comparison with Salinomycin
Experimental: The value of animal feeds generally has been determined directly by feeding the animal. British Patent Specification No. 1,197,826 details an in vitro rumen technique whereby the changes occurring in feeds brought about by microorganisms are measured more readily and with great accuracy in the evaluation of animal feeds. This technique involves the use of an apparatus in which the digestive processes of the animals are conducted and studied in vitro. The animal feeds, rumen inoculum and various growth promotants are introduced into and withdrawn from a laboratory unit under carefully controlled conditions and the changes taken place are studied critically and progressively during the consumption of the feed by the microorganisms. […] The change in propionic acid content is expressed as percent of the propionic acid content found in the control rumen fluid. Long term in vivo feeding studies are used to show a reliable correlation between propionic acid increase in the rumen fluid and improved animal performance.
Rumen fluid is collected from a fistulated cow which is fed on a commercial fattening ration plus hay. The rumen fluid is immediately filtered through cheese cloth, and 10 ml added to a 50 ml conical flask containing 400 mg. of standard substrate (68% corn starch+17% cellulose+15% extracted soybean meal), 10 ml. of a pH 6.8 buffer and the test compound. The flasks are gassed with oxygen free nitrogen for about two minutes, and incubated in a shaking water bath at 39° C. for about 16 hours. All tests are conducted in triplicate.
After incubation, 5 ml. of the sample is mixed with 1 ml. of 25% metaphosphoric acid. After 10 minutes 0.25 ml. of formic acid is added and the mixture centrifuged at 1,500 r.p.m. for 10 minutes. Samples are then analyzed by gas-liquid chromatograhy by the method of D. W. Kellog, J. Dairy Science, 52, 1690 (1969). Peak heights for acetic, propionic and butyric acids are determined for samples from untreated and treated incubation flasks.

Eimeria maxima = assay: efficacy against coccidial infections in chickens; format: in vivo; conditions: for Average degree of Infection: lesion score 0 to 3; for Average degree of Infection / Weight Gain: six days; for Ratio: lesion score treated / infected control
Experimental: (§1) Efficacy data for Antibiotic Compound 53,607 and its salts against coccidial infections in chickens was obtained in the following fashion. Groups of 3-5 ten-day old SPF white leghorn cockerel chicks were fed a mash diet containing Antibiotic Compound 53,607 or its sodium and/or potassium salt uniformly dispersed therein. After being on this ration for 24 hours each chick was inoculated per os with oocysts of the particular species of Eimeria being tested. Other groups of 3-5 ten-day old chicks were fed a similar mash diet free of Antibiotic Compound 53,607 or its salts. They were also infected after 24 hours and served as infected controls. Yet other groups of 3-5 ten-day old chicks were fed the mash diet free of Antibiotic Compound 53,607 and were not infected with coccidia. These served as normal controls. The results of treatment were evaluated after five days in the case of E. acervulina, and six days for all other challenges.
(§2) ^1 The criteria used to measure anticoccidial activity consisted of
(§3) lesion scores of 0 to 4 for E. tenella after J. E. Lynch "A New Method fo
(§4) the Primary Evaluation of Anticoccidial Activity." , Am. J. Vet. Res.
(§5) 22:324-326 (1961); and 0 to 3 for the other species based on modification
(§6) of the scoring system devised by J. Johnson and W. H. Reid, "Anticoccidia
(§7) drugs. Lesion Scoring Techniques in Battery and Floor Pen Experiments in
(§8) Chicks.", Exp. Parasit. 28: 30-36(1970). A constant ratio was established
(§9) by dividing the lesion score of each treated group by the lesion score of […]

Eimeria necatrix = assay: efficacy against coccidial infections in chickens; format: in vivo; conditions: for Average degree of Infection: lesion score 0 to 3; for Average degree of Infection / Weight Gain: six days; for Ratio: lesion score treated / infected control
Experimental: as §1, §2, §3, §4, §5, §6, §7, §8, §9

Eimeria tenella = assay: efficacy against coccidial infections in chickens; format: in vivo; conditions: for Average degree of Infection: lesion score 0 to 4
Experimental: as §1, §2, §3, §4, §5, §6, §7, §8, §9

Eimeria brunetti = assay: efficacy against coccidial infections in chickens; format: in vivo; conditions: for Average degree of Infection: lesion score 0 to 3; for Average degree of Infection / Weight Gain: six days; for Ratio: lesion score treated / infected control
Experimental: as §1, §2, §3, §4, §5, §6, §7, §8, §9

Eimeria acervulina = assay: efficacy against coccidial infections in chickens; format: in vivo; conditions: for Weight Gain / Average degree of Infection: five days; for Average degree of Infection: lesion score 0 to 3; for Ratio: lesion score treated / infected control
Experimental: as §1, §2, §3, §4, §5, §6, §7, §8, §9

solubility = format: physicochemical
Escherischia coli = assay: in vitro MIC test; format: cell-based; conditions: 24 h
Experimental: (§10) In Table I, below, the results of in vitro MIC tests are summarized. For this test each organism is inoculated in a series of test tubes containing nutrient medium and varying concentrations of Compound 53,607 to determine the minimal concentration of the antibiotic in mcg/ml which inhibits the growth of the organism over a period of 24 hours (MIC).

Serratia marcescens = assay: in vitro MIC test; format: cell-based; conditions: 24 h
Experimental: as §10

Pseudomonas aeruginosa = assay: in vitro MIC test; format: cell-based; conditions: 24 h
Experimental: as §10

[1] = system: Enterobacteriacese aerogenes; assay: in vitro MIC test; format: cell-based; conditions: 24 h
Experimental: as §10

Klebsiella pneumoniae = assay: in vitro MIC test; format: cell-based; conditions: 24 h
Experimental: as §10

[2] = system: Gram-positive microorganisms; assay: inhibitory action against growth of Gram-positive microorganisms; format: cell-based; conditions: in vitro
Experimental: as §10

[3] = system: coccidial infections in poultry; assay: activity against coccidial infections in poultry; format: in vivo
Experimental: as §1

[4] = 25 ppm in diet, value in parentheses (not explained)
[5] = 50 ppm in diet, value in parentheses (not explained)
[6] = 100 ppm in diet, value in parentheses (not explained)

Q: Which “increase in propionic acid” value (rumen fluid; 5 μg./ml.) does the source give for `CC(=CC(C)C1OC2(CCC(C)(C3CCC(C)C4(OC(C5OC(O)(CO)C(C)CC5C)CC4C)O3)O2)CC(O)C1C)C(=O)C(C)CC(C)C(=O)O` (centres unmarked) [Antibiotic Compound 53,607] here?
A: about 40%

Q: What about the “increase in propionic acid” value (rumen fluid; 20 μg./ml.) of the same compound?
A: about 43%

Q: What about the “increase in the production of propionic acid over control” value (rumen fluid; 20 micrograms per milliliter, first comparison (with Monensin)) of the same compound?
A: about 57%

Q: And the “Average degree of Infection” value (Eimeria maxima; 25 ppm in diet)?
A: 1.4

Q: And the Ratio (Eimeria maxima; 25 ppm in diet)?
A: 0.88

Q: And the “Weight Gain” value (Eimeria maxima; 25 ppm in diet)?
A: 51%

Q: What about the “Average degree of Infection” value (Eimeria maxima; 50 ppm in diet) of the same compound?
A: 1.0

Q: And the Ratio (Eimeria maxima; 50 ppm in diet)?
A: 0.63

Q: And the “Weight Gain” value (Eimeria maxima; 50 ppm in diet)?
A: 70%

Q: And the “Average degree of Infection” value (Eimeria maxima; 100 ppm in diet)?
A: 0.8

Q: And the Ratio (Eimeria maxima; 100 ppm in diet)?
A: 0.50

Q: What about the “Weight Gain” value (Eimeria maxima; 100 ppm in diet) of the same compound?
A: 37%

Q: And the “Average degree of Infection” value (Eimeria maxima; 200 ppm in diet)?
A: 1.5

Q: What about the Ratio (Eimeria maxima; 200 ppm in diet) of the same compound?
A: 0.94

Q: And the “Weight Gain” value (Eimeria maxima; 200 ppm in diet)?
A: 10%

Q: And the controlling infections (Eimeria maxima; chickens, diet, 50 to 200 ppm)?
A: effective in controlling infections

Q: And the “Average degree of Infection” value (Eimeria necatrix; 25 ppm in diet)?
A: 0.6

Q: What about the Ratio (Eimeria necatrix; 25 ppm in diet) of the same compound?
A: 0.33

Q: What about the “Weight Gain” value (Eimeria necatrix; 25 ppm in diet) of the same compound?
A: 111%

Q: And the “Average degree of Infection” value (Eimeria necatrix; 50 ppm in diet)?
A: 0.2

Q: What about the Ratio (Eimeria necatrix; 50 ppm in diet) of the same compound?
A: 0.11

Q: And the “Weight Gain” value (Eimeria necatrix; 50 ppm in diet)?
A: 99%

Q: And the “Average degree of Infection” value (Eimeria necatrix; 100 ppm in diet)?
A: 0.0

Q: What about the Ratio (Eimeria necatrix; 100 ppm in diet) of the same compound?
A: 0.00

Q: And the “Weight Gain” value (Eimeria necatrix; 100 ppm in diet)?
A: 69%

Q: What about the controlling infections (Eimeria necatrix; chickens, diet, 50 to 200 ppm) of the same compound?
A: effective in controlling infections

Q: And the “Average degree of Infection” value (Eimeria tenella; 25 ppm in diet, six days)?
A: 3.0

Q: What about the Ratio (Eimeria tenella; 25 ppm in diet, lesion score treated / infected control) of the same compound?
A: 0.95

Q: And the “Weight Gain” value (Eimeria tenella; 25 ppm in diet, six days)?
A: 47%

Q: What about the Ratio (Eimeria tenella; [4]) of the same compound?
A: 0.49

Q: What about the “Weight Gain” value (Eimeria tenella; [4]) of the same compound?
A: 102%

Q: And the “Average degree of Infection” value (Eimeria tenella; [4])?
A: 1.7

Q: What about the “Average degree of Infection” value (Eimeria tenella; 50 ppm in diet, six days) of the same compound?
A: 2.7

Q: What about the Ratio (Eimeria tenella; 50 ppm in diet, lesion score treated / infected control) of the same compound?
A: 0.86

Q: What about the “Weight Gain” value (Eimeria tenella; 50 ppm in diet, six days) of the same compound?
A: 22%

Q: What about the Ratio (Eimeria tenella; [5]) of the same compound?
A: 0.09

Q: And the “Weight Gain” value (Eimeria tenella; [5])?
A: 97%

Q: And the “Average degree of Infection” value (Eimeria tenella; [5])?
A: 0.3

Q: What about the “Average degree of Infection” value (Eimeria tenella; 100 ppm in diet, six days) of the same compound?
A: 1.0

Q: What about the Ratio (Eimeria tenella; 100 ppm in diet, lesion score treated / infected control) of the same compound?
A: 0.32

Q: What about the “Weight Gain” value (Eimeria tenella; 100 ppm in diet, six days) of the same compound?
A: 57%

Q: What about the Ratio (Eimeria tenella; [6]) of the same compound?
A: 0.37

Q: What about the “Weight Gain” value (Eimeria tenella; [6]) of the same compound?
A: 60%

Q: What about the “Average degree of Infection” value (Eimeria tenella; [6]) of the same compound?
A: 1.3

Q: What about the “Average degree of Infection” value (Eimeria tenella; 200 ppm in diet, six days) of the same compound?
A: 1.3

Q: What about the Ratio (Eimeria tenella; 200 ppm in diet, lesion score treated / infected control) of the same compound?
A: 0.41

Q: What about the “Weight Gain” value (Eimeria tenella; 200 ppm in diet, six days) of the same compound?
A: 37%

Q: What about the controlling infections (Eimeria tenella; chickens, diet, 50 to 200 ppm) of the same compound?
A: effective in controlling infections

Q: And the “Average degree of Infection” value (Eimeria brunetti; 25 ppm in diet)?
A: 2.6

Q: What about the Ratio (Eimeria brunetti; 25 ppm in diet) of the same compound?
A: 1.44

Q: What about the “Weight Gain” value (Eimeria brunetti; 25 ppm in diet) of the same compound?
A: 47%

Q: What about the “Average degree of Infection” value (Eimeria brunetti; 50 ppm in diet) of the same compound?
A: 1.0

Q: And the Ratio (Eimeria brunetti; 50 ppm in diet)?
A: 0.55

Q: What about the “Weight Gain” value (Eimeria brunetti; 50 ppm in diet) of the same compound?
A: 49%

Q: And the “Average degree of Infection” value (Eimeria brunetti; 100 ppm in diet)?
A: 0.4

Q: What about the Ratio (Eimeria brunetti; 100 ppm in diet) of the same compound?
A: 0.22

Q: And the “Weight Gain” value (Eimeria brunetti; 100 ppm in diet)?
A: 47%

Q: What about the controlling infections (Eimeria brunetti; chickens, diet, 50 to 200 ppm) of the same compound?
A: effective in controlling infections

Q: And the “Weight Gain” value (Eimeria acervulina; 25 ppm in diet)?
A: 7%

Q: What about the “Average degree of Infection” value (Eimeria acervulina; 25 ppm in diet) of the same compound?
A: 2.0

Q: And the Ratio (Eimeria acervulina; 25 ppm in diet)?
A: 1.00

Q: What about the “Weight Gain” value (Eimeria acervulina; 50 ppm in diet) of the same compound?
A: 18%

Q: And the “Average degree of Infection” value (Eimeria acervulina; 50 ppm in diet)?
A: 2.0

Q: And the Ratio (Eimeria acervulina; 50 ppm in diet)?
A: 1.00

Q: What about the “Weight Gain” value (Eimeria acervulina; 100 ppm in diet) of the same compound?
A: 22%

Q: What about the “Average degree of Infection” value (Eimeria acervulina; 100 ppm in diet) of the same compound?
A: 1.2

Q: And the Ratio (Eimeria acervulina; 100 ppm in diet)?
A: 0.60

Q: And the “Weight Gain” value (Eimeria acervulina; 200 ppm in diet)?
A: 2%

Q: And the “Average degree of Infection” value (Eimeria acervulina; 200 ppm in diet)?
A: 1.5

Q: What about the Ratio (Eimeria acervulina; 200 ppm in diet) of the same compound?
A: 0.75

Q: And the controlling infections (Eimeria acervulina; chickens, diet, 50 to 200 ppm)?
A: effective in controlling infections

Q: And the solubility in chloroform (solubility; chloroform)?
A: soluble

Q: What about the “solubility in ethyl acetate” value (solubility; ethyl acetate) of the same compound?
A: soluble

Q: And the solubility in methanol (solubility; methanol)?
A: soluble

Q: And the “solubility in methylisobutyl ketone” value (solubility; methylisobutyl ketone)?
A: soluble

Q: What about the solubility in water (solubility; water) of the same compound?
A: insoluble

Q: And the MIC (Escherischia coli)?
A: > 50 µg/mL

Q: What about the MIC (Serratia marcescens) of the same compound?
A: > 50 µg/mL

Q: And the MIC (Pseudomonas aeruginosa)?
A: > 50 µg/mL

Q: And the MIC [1]?
A: > 50 µg/mL

Q: What about the MIC (Klebsiella pneumoniae) of the same compound?
A: > 50 µg/mL

Q: And the “inhibitory action against growth” value [2]?
A: exhibits inhibitory action

Q: What about the “activity against coccidial infections in poultry” value [3] of the same compound?
A: excellent activity
